Experimental data: patent US20250135022A1, “METHODS FOR THE USE OF A B7-H3 ANTIBODY-DRUG CONJUGATE IN COMBINATION WITH A PD-1 X CTLA-4 BISPECIFIC MOLECULE” (MACROGENICS, INC., priority 2022, published 2025)

Assays:
Calu-6 lung cancer cells = experiment: Anti-tumor activity against subcutaneously implanted Calu-6 xenograft in SCID CES1c-KO mouse model; type: in vivo, SCID CES1c-KO mice; set-up: key to Anti-Tumor Activity: Highly Active: A T/C<10% is considered highly active; Active: a T/C≤42% is the minimum level of anti-tumor activity; Inactive: a T/C value of >42% is inactive
Experimental: In brief, ˜5×10^6 tumor cells (suspended in 1:1 media and MATRIGEL®) were subcutaneously implanted into the flank of female SCID CES1c-KO mice (Charles River Laboratories). When tumors had reached a volume of approximately 50-180 mm^3 (average 105 mm^3) on day 16, the mice were randomized and MGC018 or control vehicle were administered intravenously. In these studies, mice were administered either a single dose (1 mg/kg or 3 mg/kg, QW×1) of MGC018 or a fractionated dose of MGC018 (0.3 mg/kg or 1 mg/kg) once a week for 4 weeks (QW×4W). Vehicle was administered as a control on day 16. Tumors were measured twice weekly by orthogonal measurements with electronic calipers, with tumor volumes calculated as: (length×width×height)/2. The tumor volume (relative to control) was determined (“T/C”). A finding that the tumor volume of treated animals had decreased to ≤5 mm^3 during the study period was considered to denote a Complete Regression (“CR”) and a Partial Regression (“PR”) was defined when tumors were reduced by 50% or greater from day of dosing at any point during the study.

[1] = system: MDA-MB-468 triple negative breast cancer cells; experiment: Anti-tumor activity against subcutaneously implanted MDA-MB-468 xenograft in SCID CES1c-KO mouse model; type: in vivo, SCID CES1c-KO mice; set-up: key to Anti-Tumor Activity: Highly Active: A T/C<10% is considered highly active; Active: a T/C≤42% is the minimum level of anti-tumor activity; Inactive: a T/C value of >42% is inactive
Experimental: In brief, ˜5×10^6 tumor cells (suspended in 1:1 media and MATRIGEL®) were subcutaneously implanted into the flank of female SCID CES1c-KO mice (Charles River Laboratories). When tumors had reached a volume of approximately 45-135 mm^3 (average 73 mm^3) on day 54, the mice were randomized and MGC018 or control vehicle were administered intravenously. In these studies, mice were administered either a single dose (1 mg/kg or 3 mg/kg, QW×1) of MGC018 or a fractionated dose of MGC018 (0.3 mg/kg or 1 mg/kg) once a week for 4 weeks (QW×4W). Vehicle was administered as a control on day 54. Tumors were measured twice weekly by orthogonal measurements with electronic calipers, with tumor volumes calculated as: (length×width×height)/2. The tumor volume (relative to control) was determined (“T/C”). A finding that the tumor volume of treated animals had decreased to ≤5 mm^3 during the study period was considered to denote a Complete Regression (“CR”) and a Partial Regression (“PR”) was defined when tumors were reduced by 50% or greater from day of dosing at any point during the study.

[2] = 0.3 mg/kg, QW × 4W, intravenous
[3] = fractionated 0.3 and 1 mg/kg QW×4W vs single 1 or 3 mg/kg QW×1

With “MGC018: B7-H3-ADC: Light and Heavy Chain of anti-B7-H3 hmAb-A (SEQ ID NO:19, 20) conjugated via maleimide, valine-citrulline, para-aminobenzyloxycarbonyl linker to seco-DUBA payload” the “% T/C at Day 50” value (Calu-6 lung cancer cells; [2]) was 61%, the “Anti-Tumor Activity” value (Calu-6 lung cancer cells; [2]) was “Inactive” and the “CR (complete regression)” value (Calu-6 lung cancer cells; [2]) was 0/6. The “PR (partial regression)” value (Calu-6 lung cancer cells; [2]) was 0/6, the “% T/C at Day 50” value (Calu-6 lung cancer cells; 1 mg/kg, QW × 1, intravenous) was 49% and the “Anti-Tumor Activity” value (Calu-6 lung cancer cells; 1 mg/kg, QW × 1, intravenous) was “Inactive”. The “CR (complete regression)” value (Calu-6 lung cancer cells; 1 mg/kg, QW × 1, intravenous) was 0/6, the “PR (partial regression)” value (Calu-6 lung cancer cells; 1 mg/kg, QW × 1, intravenous) was 0/6 and the “% T/C at Day 50” value (Calu-6 lung cancer cells; 1 mg/kg, QW × 4W, intravenous) was 17%. The “Anti-Tumor Activity” value (Calu-6 lung cancer cells; 1 mg/kg, QW × 4W, intravenous) was “Active”, the “CR (complete regression)” value (Calu-6 lung cancer cells; 1 mg/kg, QW × 4W, intravenous) was 0/6 and the “PR (partial regression)” value (Calu-6 lung cancer cells; 1 mg/kg, QW × 4W, intravenous) was 0/6. For the same substance, the “% T/C at Day 50” value (Calu-6 lung cancer cells; 3 mg/kg, QW × 1, intravenous) was 25%, the “Anti-Tumor Activity” value (Calu-6 lung cancer cells; 3 mg/kg, QW × 1, intravenous) was “Active” and the “CR (complete regression)” value (Calu-6 lung cancer cells; 3 mg/kg, QW × 1, intravenous) was 0/6. The “PR (partial regression)” value (Calu-6 lung cancer cells; 3 mg/kg, QW × 1, intravenous) was 0/6, the “anti-tumor activity of fractionated dose compared with single dose” value (Calu-6 lung cancer cells; [3]) was “near equivalent anti-tumor activity” and the “% T/C at Day 70” value [1, 2] was 64%. The “Anti-Tumor Activity” value [1, 2] was “Inactive”, the “CR (complete regression)” value [1, 2] was 0/5 and the “PR (partial regression)” value [1, 2] was 2/5. The “% T/C at Day 70” value ([1]; 1 mg/kg, QW × 1, intravenous) was 26%, the “Anti-Tumor Activity” value ([1]; 1 mg/kg, QW × 1, intravenous) was “Active” and the “CR (complete regression)” value ([1]; 1 mg/kg, QW × 1, intravenous) was 0/5. The “PR (partial regression)” value ([1]; 1 mg/kg, QW × 1, intravenous) was 4/5, the “% T/C at Day 70” value ([1]; 1 mg/kg, QW × 4W, intravenous) was 22% and the “Anti-Tumor Activity” value ([1]; 1 mg/kg, QW × 4W, intravenous) was “Active”. The “CR (complete regression)” value ([1]; 1 mg/kg, QW × 4W, intravenous) was 3/5, the “PR (partial regression)” value ([1]; 1 mg/kg, QW × 4W, intravenous) was 5/5 and the “% T/C at Day 70” value ([1]; 3 mg/kg, QW × 1, intravenous) was 12%. For the same substance, the “Anti-Tumor Activity” value ([1]; 3 mg/kg, QW × 1, intravenous) was “Active”, the “CR (complete regression)” value ([1]; 3 mg/kg, QW × 1, intravenous) was 5/5 and the “PR (partial regression)” value ([1]; 3 mg/kg, QW × 1, intravenous) was 5/5. The “anti-tumor activity of fractionated dose compared with single dose” value [1, 3] was “near equivalent anti-tumor activity”.
